Experimental data taken from the CheMixHub viscosity set.

Test: xn = mol fraction of the nth substance listed

Cc1ccnc(C)c1 + C1CCCCC1
viscosity [mPa·s], 101 kPa
Details	x1 = 0.1087	x1 = 0.208	x1 = 0.3004	x1 = 0.407	x1 = 0.507	x1 = 0.6004	x1 = 0.6977	x1 = 0.8002	x1 = 0.9019
303 K	0.7378	0.6882	0.6701	0.6574	0.6585	0.6674	0.6805	0.7102	0.7412
313 K	0.6355	0.6204	0.6004	0.5891	0.5844	0.6004	0.6055	0.6285	0.6543
323 K	0.5624	0.533	0.5166	0.5092	0.5073	0.52	0.54	0.5502	0.583

ClC(Cl)=C(Cl)Cl + C1CCCCC1
303.15 K, 101 kPa
Details	viscosity [mPa·s]
x1 = 0.1695	0.762
x1 = 0.2317	0.777
x1 = 0.2698	0.75
x1 = 0.3794	0.742
x1 = 0.4194	0.74
x1 = 0.4306	0.75
x1 = 0.4966	0.738
x1 = 0.5117	0.751
x1 = 0.5532	0.741
x1 = 0.5969	0.751
x1 = 0.6182	0.746
x1 = 0.6612	0.758
x1 = 0.7242	0.764
x1 = 0.7644	0.771
x1 = 0.8345	0.775
x1 = 0.8383	0.781
x1 = 0.9204	0.8

O=[N+]([O-])c1ccccc1 + C1CCCCC1
viscosity [mPa·s]
Details	298.15 K	303.15 K	308.15 K	313.15 K
101 kPa, x2 = 0.1079	–	1.461	–	–
101 kPa, x2 = 0.2065	–	1.325	–	–
101 kPa, x2 = 0.49	–	1.036	–	–
101 kPa, x2 = 0.5924	–	0.9727	–	–
101 kPa, x2 = 0.701	–	0.9147	–	–
101 kPa, x2 = 0.8319	–	0.844	–	–
101 kPa, x2 = 0.8998	–	0.8149	–	–
101.3 kPa, x1 = 0.099	0.9069	0.8365	0.7722	0.7123
101.3 kPa, x1 = 0.2037	0.9519	0.8775	0.8109	0.7485
101.3 kPa, x1 = 0.297	–	0.9369	0.8638	0.7984
101.3 kPa, x1 = 0.3968	1.089	1	0.925	0.8553
101.3 kPa, x1 = 0.4968	1.16	1.067	–	0.9115
101.3 kPa, x1 = 0.5973	1.247	1.153	1.065	0.9854
101.3 kPa, x1 = 0.6959	1.346	1.241	1.147	1.061
101.3 kPa, x1 = 0.8011	–	1.367	1.264	1.167
101.3 kPa, x1 = 0.893	1.603	1.481	1.358	1.254
101.3 kPa, x2 = 0.1908	–	–	1.385	–
